± gives the expanded uncertainty stated by the source.
Experiment: xn = mol fraction of the nth substance listed
Conditions: Liquid, Vibrating tube method

CCCCCCCCCC [decane] + O=C=O
Conditions	mass density [kg/m3]
313.1 K, 2005 kPa, x2 = 0.0551	717.94 ± 0.55
313.1 K, 3035 kPa, x2 = 0.0551	718.98 ± 0.55
313.1 K, 4061 kPa, x2 = 0.0551	719.88 ± 0.56
313.1 K, 5020 kPa, x2 = 0.2369	728.09 ± 0.52
313.1 K, 5063 kPa, x2 = 0.0551	720.72 ± 0.56
313.1 K, 6029 kPa, x2 = 0.0551	721.55 ± 0.56
313.1 K, 6029 kPa, x2 = 0.2369	729.09 ± 0.52
313.1 K, 7015 kPa, x2 = 0.2369	730.07 ± 0.53
313.1 K, 7028 kPa, x2 = 0.0551	722.42 ± 0.57
313.1 K, 7998 kPa, x2 = 0.0551	723.25 ± 0.57
313.1 K, 8019 kPa, x2 = 0.2369	731.05 ± 0.53
313.1 K, 9012 kPa, x2 = 0.2369	732.01 ± 0.53
313.1 K, 9019 kPa, x2 = 0.0551	724.09 ± 0.57
313.1 K, 10010 kPa, x2 = 0.0551	724.92 ± 0.58
313.1 K, 10012 kPa, x2 = 0.2369	732.96 ± 0.54
313.1 K, 11018 kPa, x2 = 0.2369	733.88 ± 0.54
313.1 K, 11032 kPa, x2 = 0.0551	725.72 ± 0.58
313.1 K, 12009 kPa, x2 = 0.2369	734.8 ± 0.55
313.1 K, 12046 kPa, x2 = 0.0551	726.55 ± 0.58
313.1 K, 13016 kPa, x2 = 0.2369	735.72 ± 0.55
313.1 K, 13029 kPa, x2 = 0.0551	727.32 ± 0.59
313.1 K, 14011 kPa, x2 = 0.0551	728.1 ± 0.59
313.1 K, 14019 kPa, x2 = 0.2369	736.6 ± 0.55
313.1 K, 15006 kPa, x2 = 0.2369	737.46 ± 0.56
313.1 K, 15013 kPa, x2 = 0.0551	728.84 ± 0.6
313.1 K, 15992 kPa, x2 = 0.0551	729.58 ± 0.6
313.1 K, 16017 kPa, x2 = 0.2369	738.34 ± 0.56
313.1 K, 16999 kPa, x2 = 0.0551	730.32 ± 0.6
313.1 K, 17006 kPa, x2 = 0.2369	739.17 ± 0.57
313.1 K, 18008 kPa, x2 = 0.2369	740.01 ± 0.57
313.1 K, 18044 kPa, x2 = 0.0551	731.13 ± 0.61
313.1 K, 19016 kPa, x2 = 0.2369	740.85 ± 0.58
313.1 K, 19030 kPa, x2 = 0.0551	731.85 ± 0.61
313.1 K, 19999 kPa, x2 = 0.0551	732.57 ± 0.62
313.1 K, 20000 kPa, x2 = 0.2369	741.67 ± 0.58
313.1 K, 21019 kPa, x2 = 0.2369	742.51 ± 0.58
313.1 K, 21031 kPa, x2 = 0.0551	733.3 ± 0.62
313.1 K, 22002 kPa, x2 = 0.2369	743.29 ± 0.59
313.1 K, 22015 kPa, x2 = 0.0551	734 ± 0.63
313.1 K, 23007 kPa, x2 = 0.2369	744.12 ± 0.59
313.1 K, 23023 kPa, x2 = 0.0551	734.74 ± 0.63
313.1 K, 24008 kPa, x2 = 0.2369	744.96 ± 0.6
313.1 K, 24060 kPa, x2 = 0.0551	735.5 ± 0.64
313.1 K, 25013 kPa, x2 = 0.2369	745.78 ± 0.6
313.1 K, 25026 kPa, x2 = 0.0551	736.2 ± 0.64
313.11 K, 7015 kPa, x2 = 0.4536	742.3 ± 0.49
313.11 K, 8024 kPa, x2 = 0.4536	743.57 ± 0.49
313.11 K, 9021 kPa, x2 = 0.4536	744.82 ± 0.5
313.11 K, 10024 kPa, x2 = 0.4536	746.02 ± 0.5
313.11 K, 11020 kPa, x2 = 0.4536	747.22 ± 0.51
313.11 K, 11029 kPa, x2 = 0.9663	714.21 ± 1
313.11 K, 12022 kPa, x2 = 0.4536	748.39 ± 0.51
313.11 K, 12037 kPa, x2 = 0.9663	738.68 ± 0.84
313.11 K, 13012 kPa, x2 = 0.4536	749.55 ± 0.51
313.11 K, 13049 kPa, x2 = 0.9663	758.54 ± 0.75
313.11 K, 14017 kPa, x2 = 0.4536	750.69 ± 0.52
313.11 K, 14020 kPa, x2 = 0.9663	774.43 ± 0.69
313.11 K, 15013 kPa, x2 = 0.9663	788.48 ± 0.65
313.11 K, 15020 kPa, x2 = 0.4536	751.81 ± 0.52
313.11 K, 16007 kPa, x2 = 0.9663	800.98 ± 0.62
313.11 K, 16020 kPa, x2 = 0.4536	752.93 ± 0.52
313.11 K, 17013 kPa, x2 = 0.4536	753.99 ± 0.53
313.11 K, 17027 kPa, x2 = 0.9663	812.43 ± 0.59
313.11 K, 17984 kPa, x2 = 0.9663	822.21 ± 0.58
313.11 K, 18019 kPa, x2 = 0.4536	755.06 ± 0.53
313.11 K, 19014 kPa, x2 = 0.4536	756.08 ± 0.54
313.11 K, 19037 kPa, x2 = 0.9663	832.11 ± 0.56

Source: the NIST ThermoML archive (doi:10.1021/je050020m)
